Source: patent US4649139A, “1,2,4-triazines” (Burroughs Wellcome Co., priority 1983, dated 1987)

Columns and labels:
[1] = test system: guinea-pig right ventricular muscle; assay: Guinea-pig right ventricular muscle preparation (Vmax of phase 0 of the action potential); format: cell-based, male guinea-pigs; conditions: Cavia porcellus; stimulated at 1 Hz; 0 to 3×10^-4 M in modified Tyrodes solution; read-out: EC50 (50% reduction in Vmax)
From the text: Guinea-pig right ventricular muscle preparation: (Campbell, Brit.J.Pharmac., 1982, 77, 541-548)
Strips of right ventricle excised from male guinea-pigs were electrically stimulated at a frequency of 1 Hz with punctate, bipolar silver wire electrodes.

[2] = test system: aconitine-induced ventricular arrhythmias in anaesthetised rats; assay: animal or person; format: in vivo, Male Wistar rats; conditions: for % decrease in DBP: resting diastolic blood pressure; for amount of aconitine required to elicit ventricular arrhythmia (in words): pretreatment i.v., versus control animals
Experimental: Male Wistar rats weighing 200-300 g were used. Anaesthesia was induced with a halothane:air mixture and maintained by intravenous administration of a chloralose/pentobarbitone sodium mixture (3 mg/ml pentobarbitone sodium+9.5 mg/ml chloralose) after insertion of a femoral vein cannula. A tracheal cannula was inserted and the animal was respired via a Palmer small animal respiration pump (72 strokes/min and approx 1 ml/100 g). Rectal temperature was thermostatically maintained at 37° C. throughout the experiment. Cannulae were placed in a jugular vein for administration of aconitine and a carotid artery for continuous measurement of blood pressure. Subdermal needle electrodes were inserted for the recording of electrocardiograms throughout the experiment.
When the blood pressure of the animal had stabilised for 10-15 minutes, aconitine (dissolved in distilled water+HCl and diluted in 5% dextrose) was infused via the jugular vein cannula at a rate of 1 μg/min (0.03 mls/min). The total dose of aconitine required to produce ventricular tachycardia or ventricular fibrillation (VT/VF) of at least 1 sec duration was taken as the endpoint of the assay.
Anti-arrhythmic activity was assessed by pretreating animals randomly with drug or vehicle 15 mins prior to aconitine infusion and comparing the dose of aconitine necessary to induce ventricular arrhythmias in treatment groups with that of control groups. The compounds in accordance with the invention were administered as the mesylate or hydrochloride salt prepared immediately before use in a 5% dextrose solution. All drugs were administered via a femoral venous cannula in a dose volume of 0.5 ml.

beagle dogs = assay: Toxicity in dogs, daily administration for 14 days; conditions: two to three times the effective dose, daily for 14 days
Stability of the base = format: physicochemical; conditions: free base
[3] = Rattus norvegicus, iv, 0.25 h, read-out: % increase in aconitine to elicit VT/VF

SMILES	change in vivo at 1 mg/kg [2, 3] [%]	% decrease in DBP ([2]; dose 1 mg/kg (i.v.)) [%]	other results
Cn1nc(-c2cccc(Cl)c2Cl)c(N)nc1=N [Example 1, 5(3)-Amino-6-(2,3-dichlorophenyl)-2,3(2,5)-dihydro-3(5)-imino-2-methyl-1,2,4-triazine]	29	11	IC50 [1]: 130 µM
Cn1nc(-c2cc(Cl)ccc2Cl)c(N)nc1=N [Example 2, 5(3)-Amino-6-(2,5-dichlorophenyl)-2,3(2,5)-dihydro-3(5)-imino-2-methyl-1,2,4-triazine]	–	–	change in vivo at 5 mg/kg [2, 3]: 440%; % decrease in DBP ([2]; dose 5 mg/kg (i.v.)): 10%
CCCCCOc1ccccc1-c1nn(C)c(=N)nc1N [Example 3, 5(3)-Amino-6-(2-n-pentyloxyphenyl)-2,3(2,5)-dihydro-3(5)-imino-2-methyl-1,2,4-triazine]	144	8	IC50 [1]: 5.9 µM
CC(C)n1nc(-c2cccc(Cl)c2Cl)c(N)nc1=N [Example 4, 5(3)-Amino-6-(2,3-dichlorophenyl)-2,3(2,5)-dihydro-3(5)-imino-2-isopropyl-1,2,4-triazine]	490	13	toxicity (in words) (beagle dogs): No marked toxicity was observed; IC50 [1]: 2.2 µM
Cn1nc(-c2ccccc2)c(N)nc1=N [Example 5, 5(3)-Amino-6-phenyl-2,3(2,5)-dihydro-3(5)-imino-2-methyl-1,2,4-triazine]	–	–	change in vivo at 5 mg/kg [2, 3]: 30%; % decrease in DBP ([2]; dose 5 mg/kg (i.v.)): 5%
Cn1nc(-c2c(F)cccc2Cl)c(N)nc1=N [Example 6, 5(3)-Amino-6-(2-chloro-6-fluorophenyl)-2,3(2,5)-dihydro-3(5)-imino-2-methyl-1,2,4-triazine]	–	–	change in vivo at 5 mg/kg [2, 3]: 149%; % decrease in DBP ([2]; dose 5 mg/kg (i.v.)): 1%
Cn1nc(-c2ccccc2I)c(N)nc1=N [Example 7, 5(3)-Amino-6-(2-iodophenyl)-2,3(2,5)-dihydro-3(5)-imino-2-methyl-1,2,4-triazine]	–	–	change in vivo at 5 mg/kg [2, 3]: 106%; % decrease in DBP ([2]; dose 5 mg/kg (i.v.)): 13%
COc1ccccc1-c1nn(C)c(=N)nc1N [Example 8, 5(3)-Amino-6-(2-methoxyphenyl)-2,3(2,5)-dihydro-3(5)-imino-2-methyl-1,2,4-triazine]	–	–	change in vivo at 10 mg/kg [2, 3]: 51%; % decrease in DBP ([2]; dose 10 mg/kg (i.v.)): 8%
Cn1nc(-c2ccccc2Cl)c(N)nc1=N [Example 9, 5(3)-Amino-6-(2-chlorophenyl)-2,3(2,5)-dihydro-3(5)-imino-2-methyl-1,2,4-triazine]	32	4	–
CCCn1nc(-c2cccc(Cl)c2Cl)c(N)nc1=N [Example 10, 5(3)-Amino-6-(2,3-dichlorophenyl)-2,3(2,5)-dihydro-3(5)-imino-2-n-propyl-1,2,4-triazine]	225	3	–
Cn1nc(-c2ccc(Cl)cc2Cl)c(N)nc1=N [Example 11, 5(3)-Amino-6-(2,4-dichlorophenyl)-2,3(2,5)-dihydro-3(5)-imino-2-methyl-1,2,4-triazine]	33	7	–
N=c1nc(N)c(-c2cccc(Cl)c2Cl)nn1Cc1ccccc1 [Example 12, 5(3)-Amino-6-(2,3-dichlorophenyl)-2,3(2,5)-dihydro-3(5)-imino-2-benzyl-1,2,4-triazine]	14	5	–
Cn1nc(-c2cc(Cl)cc(Cl)c2Cl)c(N)nc1=N [Example 13, 5(3)-Amino-6-(2,3,5-trichlorophenyl)-2,3(2,5)-dihydro-3(5)-imino-2-methyl-1,2,4-triazine]	246	1	–
CCCCCOc1ccc(-c2nn(C)c(=N)nc2N)cc1 [Example 14, 5(3)-Amino-6-(4-n-pentyloxyphenyl)-2,3(2,5)-dihydro-3(5)-imino-2-methyl-1,2,4-triazine]	8	2	–
CCCc1ccccc1-c1nn(C)c(=N)nc1N [Example 15, 5(3)-Amino-6-(2-n-propylphenyl)-2,3(2,5)-dihydro-3(5)-imino-2-methyl-1,2,4-triazine]	12	5	–
CCCOc1ccccc1-c1nn(C)c(=N)nc1N [Example 16, 5(3)-Amino-6-(2-n-propyloxyphenyl)-2,3(2,5)-dihydro-3(5)-imino-2-methyl-1,2,4-triazine]	15	3	–
CCCCCCCOc1ccccc1-c1nn(C)c(=N)nc1N [Example 17, 5(3)-Amino-6-(2-n-heptyloxyphenyl)-2,3(2,5)-dihydro-3(5)-imino-2-methyl-1,2,4-triazine]	154	3	–
CCCCCn1nc(-c2cccc(Cl)c2Cl)c(N)nc1=N [Example 18, 5(3)-Amino-6-(2,3-dichlorophenyl)-2,3(2,5)-dihydro-3(5)-imino-2-n-pentyl-1,2,4-triazine]	46	1	stability of the base (in words) (Stability of the base): unstable
CCN(CC)CC(=O)Nc1c(C)cccc1C [Lidocaine, reference compound]	–	–	change in vivo at 10 mg/kg [2, 3]: 44%; % decrease in DBP ([2]; dose 10 mg/kg (i.v.)): 1%; amount of aconitine required to elicit ventricular arrhythmia (in words) [2]: increased the amount of aconitine required to elicit the same ventricular arrhythmia
O=C1NC(=O)C(c2ccccc2)(c2ccccc2)N1 [Phenytoin, reference compound]	–	–	change in vivo at 10 mg/kg [2, 3]: 19%; % decrease in DBP ([2]; dose 10 mg/kg (i.v.)): 4%; amount of aconitine required to elicit ventricular arrhythmia (in words) [2]: increased the amount of aconitine required to elicit the same ventricular arrhythmia
CCN(CC)CCNC(=O)c1ccc(N)cc1 [Procainamide, reference compound]	–	–	change in vivo at 20 mg/kg [2, 3]: 11%; % decrease in DBP ([2]; dose 20 mg/kg (i.v.)): 22%; amount of aconitine required to elicit ventricular arrhythmia (in words) [2]: increased the amount of aconitine required to elicit the same ventricular arrhythmia
CC(C)NCC(O)COc1cccc2ccccc12 (centres unmarked) [Propranolol, reference compound]	51	0	amount of aconitine required to elicit ventricular arrhythmia (in words) [2]: increased the amount of aconitine required to elicit the same ventricular arrhythmia
C=C[C@H]1C[N@@]2CC[C@H]1C[C@@H]2[C@@H](O)c1ccnc2ccc(OC)cc12 [Quinidine, reference compound]	–	–	change in vivo at 10 mg/kg [2, 3]: 8%; % decrease in DBP ([2]; dose 10 mg/kg (i.v.)): 43%; amount of aconitine required to elicit ventricular arrhythmia (in words) [2]: increased the amount of aconitine required to elicit the same ventricular arrhythmia
COc1ccc(CCN(C)CCCC(C#N)(c2ccc(OC)c(OC)c2)C(C)C)cc1OC (centres unmarked) [Verapamil, reference compound]	84	68	amount of aconitine required to elicit ventricular arrhythmia (in words) [2]: increased the amount of aconitine required to elicit the same ventricular arrhythmia
